Data on 2 compounds can be found in patent publication US20080161400A1, “USE OF FORMS OF PROPOFOL FOR TREATING DISEASES ASSOCIATED WITH OXIDATIVE STRESS” (XenoPort, Inc., priority 2006, published 2008).

One data set has as its system rats. Put plainly: Acute toxicity study in rats, single oral dose. The class given is in vivo. As to the method:
Acute toxicity studies in rats were undertaken to assess the tolerance of a single oral dose of compound (2) formulated in water. […] Complete recovery from hypoactivity, sedation, and anesthesia occurred in all rats within about 8 hours after dose. Doses above about 1552 mg-eq/kg (about 800 mg-eq/kg of propofol) were not tested.

A further data set concerns male rats. Put plainly: Multiple dose study in rats, five days, oral gavage once a day. Type of data set: in vivo. To be noted: 49 to 97 mg-eq/kg orally once a day for five days. As to the method:
Multiple dose studies in rats were performed by orally administering compound (2) formulated in water to groups of male rats at doses of 49 mg-eq/kg to 97 mg-eq/kg for a period of five days, by oral gavages administered once a day.

Another data set relates to male beagle dogs. Briefly: Acute toxicity study in dogs, single oral dose. The class given is in vivo. As to the method:
Acute toxicity studies were also performed by orally administering a single dose of compound (2) formulated in water to groups of male beagle dogs at doses from about 25 mg-eq/kg to about 150 mg-eq/kg.

For data set [1] the following is noted: orally administered as a homogeneous liquid suspension, relative to an equivalent intravenous dose of propofol; cited from earlier work.
For data set [2] the following is noted: oral dosing, rats; cited from earlier work.

For `CC(C)c1cccc(C(C)C)c1OC(=O)OC[C@H](N)C(=O)O` (stereo in doubt) [compound (2), 2-amino-3-(2,6-diisopropyl-phenoxycarbonyloxy)-propanoic acid], the “Time to complete recovery from hypoactivity, sedation, and anesthesia after dose” value with rats (all rats, single oral dose) is not above 8 h. Besides, in the data set on rats (rats, about 49 mg-eq/kg to about 1552 mg-eq/kg of administered compound, in water), the “Tolerance of a single oral dose” value is reported as “well tolerated”. Moreover, in the data set on rats (rats, single oral dose about 49 up to about 388 mg-eq/kg, within about 30 minutes of dose, maintained up to 4 hours post dose), the Hypoactivity entry is recorded as “Transient hypoactivity was observed”. Besides, the Sedation entry in the data set with rats (rats, single oral dose about 582 up to about 970 mg-eq/kg, within about 1.5 hours of dose, lasted up to 4 hours post dose) was “Sedation was observed”. Moreover, the Anesthesia result in the data set on rats (rats, single oral dose about 1164 up to about 1552 mg-eq/kg, within about 1 hour of dose, lasted up to about 2 hours post dose) is reported as “Anesthesia was observed”. Further, in the data set on male rats, the Adverse effects entry is “No adverse effects were observed”, the Sedation or anesthesia entry is on record as “No sedation or anesthesia was observed” and the “Tolerance of multiple doses” value is “well tolerated”. In addition, the “Tolerance of a single oral dose” value in the data set with male beagle dogs (about 25 mg-eq/kg to about 150 mg-eq/kg, in water) was “well tolerated”. Moreover, the Sedation or anesthesia entry in the data set on male beagle dogs (single oral dose about 25 to about 150 mg-eq/kg) is “No sedation or anesthesia was observed”.
As to `CC(C)c1cccc(C(C)C)c1O` [propofol, 2,6-diisopropylphenol], the Oral bioavailability result in data set [1] is “less than 5%”. For the same compound, in data set [2], the “Administered drug undergoing first pass metabolism” value was “approximately 90%”.
